Assay results published in US8901110B2, “Use of biomarkers in methods for the treatment of hepatocellular carcinoma” (Celgene Corporation, priority 2012, dated 2014).

What was measured:
[1] = system: Focus cells (poorly differentiated HCC cell line); test: Cell migration assay (migration chamber), Focus cell line; type: cell-based
Method: (§1) Focus and Hub7 cells were treated with 10 μM of LM in DMSO or DMSO as a control for 24 hrs. The cells were transferred in a migration chamber (BD Biosciences). The lower chamber was filled with 10% FBS-containing medium as a chemoattractant and was separated from the upper chamber by a 8 μm pore membrane. After 16 hrs, the remaining cells in the upper chamber (non-migrated cells) were removed and the cell attached to the bottom of the membrane (migrated cells) were stained with crystal violet and counted using Stereologer (SRC) in 10 different fields of the membrane.
(§2) In another set of experiments, the effects of LM and Compound A on HCC cell migration and invasion were assessed using procedures similar to those described above using FOCUS cell line (poorly differentiated HCC cell line).

[2] = system: Focus cells (poorly differentiated HCC cell line); test: Cell invasion assay (Matrigel-coated chamber), Focus cell line; type: cell-based
Method: (§3) Focus and Hub7 cells were treated with 10 μM of LM in DMSO or DMSO as a control for 24 hrs. The cells were transferred in a migration chamber coated with Matrigel (BD Biosciences). After 16 hrs, invasive cells attached to the bottom of the membrane were stained/counted and normalized by the number of migrative cells in a corresponding non-coated migration chamber.
as §2

[3] = system: HAK-1A cell line (well differentiated HCC cell line); test: Cell migration assay (migration chamber), HAK-1A cell line; type: cell-based; conditions: FIG. 3
[4] = system: HAK-1B cell line (poorly differentiated HCC cell line); test: Cell migration assay (migration chamber), HAK-1B cell line; type: cell-based; conditions: FIG. 4
Method: as §1
(§4) In another set of experiments, the effects of LM and Compound A on HCC cell migration and invasion were assessed using procedures similar to those described above, except that HAK-1B cell line (poorly differentiated HCC cell line) was employed.

[5] = system: HAK-1B cell line (poorly differentiated HCC cell line); test: Cell invasion assay (Matrigel-coated chamber), HAK-1B cell line; type: cell-based; conditions: HAK-1B (printed HAK-1AB), FIG. 4
Method: as §3, §4

[6] = system: HAK-1A cell line (well differentiated HCC cell line); test: Wound healing assay, HAK-1A cell line; type: cell-based; conditions: FIG. 6
Method: In another set of experiments, the effects of LM and Compound A on HCC cell migration were assessed using wound healing assay in HAK-1A cell line (well differentiated HCC cell line). The following procedures were used.
(§5) 1. Cell seeding: A grid on the underside of the plate (60 mm) was drawn according to the paper diagram. Cells were seeded on 60 mm dish (aimed for confluent cells).
(§6) 2. Scratch wound: Using a tip (green), a scratch wound was made. The locations of the wounds were recorded by drawing on a paper. SF DMEM+trypsin aliquot was retrieved from the incubator, and the media/floating cells from the dish was aspirated. Cells were washed with DMEM+Trypsin to remove cells that have not been completely scratched away from the wound. Then the dish was filled with 4 ml of 10% FBS DMEM.
(§7) 3. Taking photographs: The marker was included on the top of the image frame so the same wound area can be kept track of. Then pictures of those wounds for the indicated time points were taken. Results were expressed as percentage of wound closure, as an index of cell migration, normalized to the initial width.

[7] = system: FOCUS cell line (poorly differentiated HCC cell line); test: Wound healing assay, FOCUS cell line; type: cell-based; conditions: FIG. 7
Method: as §5, §6, §7
In another set of experiments, the effects of LM and Compound A on HCC cell migration were assessed using wound healing assay in FOCUS cell line (poorly differentiated HCC cell line).

[8] = system: HAK-1B cell line (poorly differentiated HCC cell line); test: Wound healing assay, HAK-1B cell line; type: cell-based; conditions: FIG. 8
Method: as §5, §6, §7
In another set of experiments, the effects of LM and Compound A on HCC cell migration were assessed using wound healing assay in HAK-1B cell line (poorly differentiated HCC cell line).

[9] = system: HCC cell lines Huh7, FOCUS, HAK-1A and HAK-1B; test: MTS assay (cytotoxicity); type: cell-based; conditions: 24 or 72 hours; FIG. 17
Method: MTS assay was performed to evaluate the toxicity of Compound A for HCC cell lines Huh7, FOCUS, HAK-1A and HAK-1B. Compound A, at various concentrations ranging from […], was incubated with the specified cells for 24 or 72 hours.

HAK1A-J xenograft [10] = test: HAK1A-J xenograft models, pilot study (tumor volume); type: in vivo, mice; conditions: compared with control, FIG. 19
Method: Effects of LM and Compound A in HAK1A-J xenograft models were examined in a pilot study using 5 animals (mice). Anti-tumor effects of LM and Compound A were assessed following the xenograft by measuring tumor volume after the treatment by the drugs.

HAK1A-J xenograft [11] = test: HAK1A-J xenograft models (tumor volume); type: in vivo; conditions: male mice; compared with control or LM treated mice; FIG. 21
Method: Effects of LM and Compound A in HAK1A-J xenograft models were examined using 50 male mice 4 weeks of age. Anti-tumor effects of LM and Compound A were assessed following the xenograft by measuring tumor volume after the treatment by the drugs.

[12] = system: TCF-4J isoform dependent target genes; test: qRT-PCR of TCF-4J responsive target genes in xenograft tumors; type: in vivo, mice; conditions: for mRNA expression: HAK1A-J xenograft models, legend of FIG. 22, genes not named
Method: Effects of LM and Compound A on expression of TCF-4J responsive target genes in HAK-1A xenograft tumors were assessed by measuring mRNA expression levels of TCF-4J isoform dependent target genes in xenograft tumors treated with LM, Compound A and control vehicle. The following procedures were used: Total RNA was extracted from tumors using TRIzol Reagent, and reverse transcription was performed with First Strand cDNA Synthesis Kit for RT-PCR (AMV). Quantitative real-time PCR was carried out on a Mastercycler ep realplex instrument and software, using SYBR Green PCR reagents. Relative quantification was performed using ΔΔCt method, normalizing to 18S rRNA. Dissociation curves were generated to evaluate PCR product specificity and purity.

TCF-4 = test: Western blot of nuclear TCF-4 expression after LM treatment; type: cell-based; conditions: 10 μM, 24 hrs; poorly-differentiated cells (Focus); normalized by lamin; FIG. 1
Method: Focus and Hub7 cells were treated with 10 μM of lenalidomide (“LM”) in DMSO or DMSO as a control for 24 hrs. Nuclear and cytosolic proteins were separately extracted and the expression of TCF-4 was analyzed by western blot. Nuclear expression of both long and short isoforms of TCF-4 was qualified using ImageJ (NIH) and normalized by expression of lamin.

[13] = another set of experiments, FOCUS, poorly differentiated, FIG. 5
[14] = xenograft tumors, ΔΔCt, normalized to 18S rRNA, FIG. 22

Cc1nc2cccc(N)c2c(=O)n1C1CCC(=O)NC1=O (stereo not drawn) [Compound A, 3-(5-amino-2-methyl-4-oxo-4H-quinazolin-3-yl)-piperidine-2,6-dione]
cell migration [1, 13]: did not inhibit cell migration
cell invasion [2, 13]: inhibited cell invasion
cell migration [3]: did not affect the cell migration
cell migration [4]: inhibited cell migration
cell invasion [5]: inhibited cell invasion
cell migration (wound closure) [6]: did not affect the cell migration
cell migration (wound closure) [7]: reduced cell migration
cell migration (wound closure) [8]: reduced cell migration
HCC cell proliferation [9]: no effect on HCC cell proliferation
tumor volume (HAK1A-J xenograft [10]): significantly reduced the volume of tumors
tumor volume (HAK1A-J xenograft [11]): much more significantly reduced the volume of tumors
mRNA expression [12]: reduction of mRNA expression
mRNA level of ANXA1 [12, 14]: reduced
mRNA level of ASPH [12, 14]: reduced
mRNA level of CAMK2N1 [12, 14]: reduced
mRNA level of CLDN2 [12, 14]: reduced
mRNA level of GPR56 [12, 14]: reduced
mRNA level of JAG1 [12, 14]: reduced

Nc1cccc2c1CN(C1CCC(=O)NC1=O)C2=O (stereo not drawn) [LM, 1-oxo-2-(2,6-dioxopiperidin-3-yl)-4-aminoisoindoline, reference compound]
TCF-4 expression, short and long forms (nuclear) (TCF-4): decreased
cell migration ([1]; 10 μM, 24 hrs, migrated cells counted after 16 hrs, Focus, FIG. 2): inhibited cell migration
cell migration [1, 13]: did not inhibit cell migration
cell invasion ([2]; 10 μM, 24 hrs, invasive cells after 16 hrs, normalized by migrative cells, Focus, FIG. 2): inhibited cell invasion
cell invasion [2, 13]: inhibited cell invasion
cell migration [3]: did not affect the cell migration
cell migration [4]: inhibited cell migration
cell migration (wound closure) [6]: did not affect the cell migration
cell migration (wound closure) [7]: reduced cell migration
tumor volume (HAK1A-J xenograft [10]): significantly reduced the volume of tumors
tumor volume (HAK1A-J xenograft [11]): reduction of tumor volume was observed
mRNA expression [12]: reduction of mRNA expression
